Key:
NQO1 = NQO1 (Homo sapiens, UniProt P15559); assay: Enzyme detection by antibody-probe conjugate: fluorescence/FRET change with NADPH/NQO1; format: biochemical; details: NADPH/NQO1 in water system, culture time of about 1 h; NAM emission 530 nm vs C1 emission 435 nm
Description: In a culture time of about 1 h, a change of about 20 times the FRET ratio (intensity ratio of two emission peaks) can be seen (see inset). The above results indicated the occurrence of an efficient FRET process between the C1 coumarin linkage bond and the enzymatic-produced NAM residue.

[1] = tested on: LS180 cells (normal CEA and lacking NQO1); assay: CLSM detection of intracellular CEA and quinone oxidoreductase, LS180 cells; format: cell-based; details: LS180 cells co-cultured with conjugate
Description: (§1) Viable HepG2 cells (lacking CEA and NQO1), LS180 cells (normal CEA and lacking NQO1) and HT29 cells (normal CEA and normal NQO1) were co-cultured with QNAM-C1-ACEA antibody-probe conjugate.

[2] = tested on: HT29 cells (normal CEA and normal NQO1); assay: CLSM detection of intracellular CEA and quinone oxidoreductase, HT29 cells; format: cell-based; details: HT29 cells co-cultured with conjugate
Description: as §1

[3] = tested on: HepG2 cells (lacking CEA and NQO1); assay: CLSM detection of intracellular CEA and quinone oxidoreductase, HepG2 cells; format: cell-based; details: HepG2 cells co-cultured with conjugate
Description: as §1

NQO1, sequence (P15559 whole entry, species assumed): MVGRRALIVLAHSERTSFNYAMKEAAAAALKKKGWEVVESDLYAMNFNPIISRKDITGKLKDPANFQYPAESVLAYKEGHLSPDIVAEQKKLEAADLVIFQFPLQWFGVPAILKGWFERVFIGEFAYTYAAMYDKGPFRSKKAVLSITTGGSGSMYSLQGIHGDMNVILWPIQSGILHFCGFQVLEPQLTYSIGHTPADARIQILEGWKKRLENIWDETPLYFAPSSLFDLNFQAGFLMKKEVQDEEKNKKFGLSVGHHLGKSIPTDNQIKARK

COC(=O)CC(SC)C(=O)Nc1cc2ccc(-c3cn(CCN4C(=O)c5cccc6c(NC(=O)CC(C)(C)C7=C(C)C(=O)C(C)=C(C)C7=O)ccc(c56)C4=O)nn3)cc2oc1=O (stereo not shown) [QNAM-C1-ACEA]
change of the FRET ratio (intensity ratio of two emission peaks) (NQO1): about 20 times | CLSM emission of C1 coumarin (blue) and NAM (green) in cells [1]: intermittent blue luminous points of C1 coumarin and few NAM green emission signals | CLSM emission of C1 coumarin (blue) and NAM (green) in cells [2]: green channel NAM emission was obviously enhanced | CLSM emission of C1 coumarin (blue) and NAM (green) in cells [3]: very low blue and green emission

Reference: patent US11129909B2, “Conjugate and block copolymer containing fluorescent chromophore and preparation method therefor and use thereof” (priority 2017, dated 2021)
